Laboratory results reported in patent US10793519B2, “Ultra short acting anti-arrhythmic agents” (Academic Pharmaceuticals Incorporated, priority 2018, dated 2020).
Where two headings read alike, the source gives them in different places.

Assays:
hERG channel = hERG channel (Homo sapiens, UniProt Q12809); test: whole-cell voltage-clamp tail current / current density experiments in hERG-HEK cells
Procedure: A set of whole-cell, voltage-clamp experiments was performed using a HEKA® EPC 9 amplifier. Data was recorded and analyzed using the HEKA® Patchmaster and Fitmaster software. At the time of the recordings, cell culture media was replaced by a bath solution (containing (mM): 137 NaCl, 4 KCl, 1.8 CaCl2, 10 HEPES, and 10 glucose, pH adjusted to 7.4 with NaOH). The pipette solution containing different concentrations of the drug to test was introduced. Borosilicate glass electrodes (tip resistant 2-5 MΩ) were filled with internal solution (containing (mM): 130 KCl, 1 MgCl2, 5 EGTA, 5 MgATP and 10 HEPES, pH adjusted to 7.2 with KOH). Tail currents were measured at repolarizing test potentials (−100 to +40 mV, 4 seconds each) following a one second depolarizing step to +60 mV from a holding potential of −80 mV. Cell recordings were performed in a minimum of 2 plates (3-5 cells/plate) for each EFV concentration and compared to control.
In hERG-HEK cells that were transiently […] with CYP2B6*1 cDNA, tail current recordings were performed using the following 2-sweep voltage clamp protocol: membrane potential was held at −80 mV, increased to 60 mV (1 second), and currents were measured during two repolarizing steps at −100 and −20 mV (5 seconds each). This protocol was performed twice for each cell at 1 and 2 minutes following cytosolic access and exposure to the pipette solution to evaluate the influence of incubation time on drug mediated alterations in hERG channel conductivity. A sigmoidal Emax model was fit to the EFV inhibitory effect on 1hERG using Prism (GraphPad Software, Inc., La Jolla, Calif.).
Sotalol ester, soestolol (ester A, Table 1, Example 1) and its corresponding acid (ester C) were evaluated. The studies were performed blinded with the operator unaware of the chemical structure of Ester A or Ester C.

[1] = cited from earlier work

Chain of hERG channel (Q12809 whole entry): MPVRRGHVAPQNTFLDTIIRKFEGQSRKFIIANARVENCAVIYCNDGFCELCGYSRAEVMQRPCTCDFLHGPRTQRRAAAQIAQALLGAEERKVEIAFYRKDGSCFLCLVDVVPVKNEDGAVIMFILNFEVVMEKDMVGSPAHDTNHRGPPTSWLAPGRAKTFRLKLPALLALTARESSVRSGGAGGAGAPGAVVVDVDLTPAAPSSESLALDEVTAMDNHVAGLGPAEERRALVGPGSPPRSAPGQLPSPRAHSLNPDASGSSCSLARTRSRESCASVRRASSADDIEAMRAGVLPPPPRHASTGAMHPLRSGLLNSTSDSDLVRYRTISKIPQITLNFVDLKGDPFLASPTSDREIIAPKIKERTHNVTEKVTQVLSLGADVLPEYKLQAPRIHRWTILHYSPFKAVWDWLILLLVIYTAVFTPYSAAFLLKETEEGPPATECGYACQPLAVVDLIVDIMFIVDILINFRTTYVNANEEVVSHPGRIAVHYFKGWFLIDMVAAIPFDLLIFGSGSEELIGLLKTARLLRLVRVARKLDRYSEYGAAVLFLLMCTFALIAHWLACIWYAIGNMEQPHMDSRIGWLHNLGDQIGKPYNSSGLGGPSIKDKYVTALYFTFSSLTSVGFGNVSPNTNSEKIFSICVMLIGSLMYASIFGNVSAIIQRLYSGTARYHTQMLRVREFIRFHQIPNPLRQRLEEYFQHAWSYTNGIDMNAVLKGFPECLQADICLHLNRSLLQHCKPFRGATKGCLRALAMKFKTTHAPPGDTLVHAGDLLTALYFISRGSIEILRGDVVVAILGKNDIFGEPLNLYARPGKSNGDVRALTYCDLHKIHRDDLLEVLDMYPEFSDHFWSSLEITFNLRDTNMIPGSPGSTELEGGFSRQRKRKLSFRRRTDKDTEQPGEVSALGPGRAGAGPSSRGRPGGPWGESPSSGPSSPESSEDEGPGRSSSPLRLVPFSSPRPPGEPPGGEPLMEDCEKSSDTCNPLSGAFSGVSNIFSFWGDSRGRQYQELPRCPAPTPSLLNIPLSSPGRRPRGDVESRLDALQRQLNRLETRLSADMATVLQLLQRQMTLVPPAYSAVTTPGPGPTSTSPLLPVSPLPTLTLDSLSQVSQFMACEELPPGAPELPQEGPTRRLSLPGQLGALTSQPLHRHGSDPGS

COC(=O)CS(=O)(=O)Nc1ccc(C(O)CNC(C)C)cc1 (stereo not drawn) [Ester A]
inhibition of K current (current density), FIG. 1 (hERG channel): dose dependent reduction in current | potency on K current compared with sotalol, FIG. 1 (hERG channel): significantly more potent than the corresponding sotalol dose

CC(C)NCC(O)c1ccc(NS(=O)(=O)CC(=O)O)cc1 (stereo not drawn) [Ester C]
activity on current, FIG. 2 (hERG channel): no activity

CC(C)NCC(O)c1ccc(NS(C)(=O)=O)cc1 (stereo not drawn) [sotalol]
reduction in current, FIG. 2 (hERG channel; 5 μM): dose related reduction in current | reduction in current, FIG. 2 (hERG channel; 50 μM): dose related reduction in current | inhibition of K current (current density), FIG. 1 (hERG channel; 5 μm): reduction in current | inhibition of K current (current density), FIG. 1 (hERG channel; 10 μm): further reduction | half-life ([1]; in man, on average): twelve | terminal elimination half-life ([1]; in vivo): 10 to 20 h
